Bridge positions count the residues as written; N and C are the ends. Square brackets hold non-standard residues; d marks the D form. Peptide text beside a SMILES is read from it. Phe(4-COOH) = N[C@@H](Cc1ccc(C(=O)O)cc1)C(=O)O; S5 = C=CCCC[C@](C)(N)C(=O)O; Nle = CCCC[C@H](N)C(=O)O
Experiments:
[1] = target: T1, flag-tagged HIF1α (AA 786-826) / His6-tagged p300 (AA 323-423) complex (Homo sapiens, UniProt Q09472); experiment: HIF1α p300 displacement assay (TR FRET, +CHAPS); assay type: binding; settings: read-out: IC50 (nM) (HIF1α_p300 Displacement + CHAPS)
T1 construct: His6-tagged p300 (AA 323-423); made in house; host or cells: E. coli (pETDuet vector)
Summary of the method: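 The co-expressed flag-HIF1α (786-826)/His6-p300 (323-423) complex, purified from E. coli with 0.1 mM ZnSO4, was used at 300 nM final with competitor peptides for 1 h at room temperature. Buffer was 150 mM NaCl, 20 mM HEPES pH 7.4, 7.5 mM CHAPS and 1 mM DTT. Anti-Flag-K (0.5 μM) and anti-His-D2 (4 nM) were then added for 2 h, and IC50s were fitted from the TR-FRET ratio.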

HRE-bla ME-180 cells [2] = experiment: Reporter gene assay (HRE-bla ME-180 HIF reporter, GeneBLAzer); assay type: cell-based, human; settings: for EC50: 24 hour normoxia
Summary of the method: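 A FRET β-lactamase readout of HIF transcription was used. After compound treatment in 0.3% DMSO/media under normoxic conditions, 20 μl of 6× LiveBLAzer-FRET B/G (CCF4-AM) substrate was added. Plates sat 3 hr at room temperature in the dark and were read at 409 Ex/460Em and 409Ex/530Em on a Synergy 2. Inhibition was compared against DMSO vehicle controls, with chetomin as positive control.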

HRE-bla ME-180 cells [3] = experiment: Cell proliferation assay (viability, MTT, 1% FBS); assay type: cell-based, human
Summary of the method: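 ME-180 cells (2×10^4/well) in Opti-MEM with 1% FBS were pretreated 16 h under normoxia (21% O2), vehicle 0.5% DMSO final. Incubation then continued under normoxia or hypoxia (1% O2); viable cells quantified by MTT-type CellTiter 96 assay.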

| Structure (SMILES) | IC50 [1] [nM] | EC50 (HRE-bla ME-180 cells [2]) [µM] | 18 h Avg % max inhibition at top conc (HIF Rptr-24 hrs normoxia) (μM) (HRE-bla ME-180 cells [2]) | Viability 1% FBS AVG (MTT V3-24 hr Normoxia) (μM) (HRE-bla ME-180 cells [3]) |
| --- | --- | --- | --- | --- |
| CCCC[C@H](NC(=O)[C@H](CC(C)C)NC(=O)[C@@H](NC(=O)[C@H](CCC(=O)O)NC(=O)[C@H](CCC(=O)O)NC(=O)[C@H](CC(=O)O)NC(=O)[C@@H](NC(=O)[C@H](Cc1ccccc1)NC(C)=O)[C@@H](C)CC)C(C)C)C(=O)N[C@@]1(C)CCCC=CCCC[C@@](C)(C(=O)N[C@@H](CCCC)C(=O)N[C@@H](C)C(=O)N[C@@H](Cc2ccccc2)C(N)=O)NC(=O)[C@H]([C@@H](C)CC)NC(=O)[C@H](C(C)C)NC(=O)[C@H](CC(C)C)NC1=O [SP-220] (Ac-FIDEEVL[Nle][S5]LVI[S5][Nle]AF-NH2; staple 9-13) | > 700 | > 30 | + (<10: +) | ++++ (≥30: ++++) |
| CCCC[C@H](NC(=O)[C@H](CC(C)C)NC(=O)[C@@H](NC(=O)[C@H](CCC(=O)O)NC(=O)[C@H](CCC(=O)O)NC(=O)[C@H](C)NC(=O)[C@@H](NC(=O)[C@H](Cc1ccccc1)NC(C)=O)[C@@H](C)CC)C(C)C)C(=O)N[C@@]1(C)CCCC=CCCC[C@@](C)(C(=O)N[C@@H](CCCC)C(=O)N[C@@H](C)C(=O)N[C@@H](CC(C)C)C(=O)N[C@@H](CC(=O)O)C(=O)N[C@@H](C)C(=O)N[C@H](C(N)=O)[C@@H](C)CC)NC(=O)[C@H]([C@@H](C)CC)NC(=O)[C@H](C(C)C)NC(=O)[C@H](CC(C)C)NC1=O [SP-221] (Ac-FIAEEVL[Nle][S5]LVI[S5][Nle]ALDAI-NH2; staple 9-13) | 200 to 400 | 15 to 30 | ++++ (≥50: ++++) | ++++ (≥30: ++++) |
| CCCC[C@H](NC(=O)[C@H](CC(C)C)NC(=O)[C@@H](NC(=O)[C@H](CCC(=O)O)NC(=O)[C@H](CCC(=O)O)NC(=O)[C@H](CC(=O)O)NC(=O)[C@@H](NC(=O)[C@H](Cc1ccccc1)NC(C)=O)[C@@H](C)CC)C(C)C)C(=O)N[C@@]1(C)CCCC=CCCC[C@@](C)(C(=O)N[C@@H](CCSC)C(=O)N[C@@H](C)C(=O)N[C@@H](CC(C)C)C(N)=O)NC(=O)[C@H]([C@@H](C)CC)NC(=O)[C@H](C(C)C)NC(=O)[C@H](CC(C)C)NC1=O [SP-224] (Ac-FIDEEVL[Nle][S5]LVI[S5]MAL-NH2; staple 9-13) | 400 to 700 | > 30 | ++ (≤10 but <25: ++) | ++++ (≥30: ++++) |
| CCCC[C@H](NC(=O)[C@]1(C)CCCC=CCCC[C@](C)(NC(=O)[C@H](CCSC)NC(=O)[C@H](CC(C)C)NC(=O)[C@@H](NC(=O)[C@H](CCC(=O)O)NC(=O)[C@H](CCC(=O)O)NC(=O)[C@H](CC(=O)O)NC(=O)[C@@H](NC(=O)[C@H](Cc2ccccc2)NC(C)=O)[C@@H](C)CC)C(C)C)C(=O)N[C@@H](CC(C)C)C(=O)N[C@@H](C(C)C)C(=O)N[C@@H]([C@@H](C)CC)C(=O)N1)C(=O)N[C@@H](C)C(=O)N[C@@H](CC(C)C)C(N)=O [SP-225] (Ac-FIDEEVLM[S5]LVI[S5][Nle]AL-NH2; staple 9-13) | > 700 | > 30 | +++ (≤25 but <50: +++) | ++++ (≥30: ++++) |
| CC[C@H](C)[C@H](NC(=O)[C@H](Cc1ccccc1)NC(C)=O)C(=O)N[C@@H](CC(=O)O)C(=O)N[C@@H](CCC(=O)O)C(=O)N[C@@H](CCC(=O)O)C(=O)N[C@H](C(=O)N[C@@H](CC(C)C)C(=O)N[C@@H](CCSC)C(=O)N[C@@]1(C)CCCC=CCCC[C@@](C)(C(=O)N[C@@H](CCSC)C(=O)N[C@@H](C)C(=O)N[C@@H](Cc2ccccc2)C(N)=O)NC(=O)[C@H]([C@@H](C)CC)NC(=O)[C@H](C(C)C)NC(=O)[C@H](CC(C)C)NC1=O)C(C)C [SP-226] (Ac-FIDEEVLM[S5]LVI[S5]MAF-NH2; staple 9-13) | 400 to 700 | > 30 | ++ (≤10 but <25: ++) | ++++ (≥30: ++++) |
| CCCC[C@H](NC(=O)[C@H](C)NC(=O)[C@H](CCSC)NC(=O)[C@]1(C)CCCC=CCCC[C@](C)(NC(=O)[C@H](CCSC)NC(=O)[C@H](CC(C)C)NC(=O)[C@@H](NC(=O)[C@H](CCC(=O)O)NC(=O)[C@H](CCC(=O)O)NC(=O)[C@H](CC(=O)O)NC(=O)[C@@H](NC(=O)[C@H](Cc2ccccc2)NC(C)=O)[C@@H](C)CC)C(C)C)C(=O)N[C@@H](CC(C)C)C(=O)N[C@@H](C(C)C)C(=O)N[C@@H]([C@@H](C)CC)C(=O)N1)C(N)=O [SP-227] (Ac-FIDEEVLM[S5]LVI[S5]MA[Nle]-NH2; staple 9-13) | > 700 | > 30 | ++ (≤10 but <25: ++) | ++++ (≥30: ++++) |

Now from value to molecule, other results behind:

| IC50 [1] [nM] | EC50 (HRE-bla ME-180 cells [2]) [µM] | Structure (SMILES) | 18 h Avg % max inhibition at top conc (HIF Rptr-24 hrs normoxia) (μM) (HRE-bla ME-180 cells [2]) | Viability 1% FBS AVG (MTT V3-24 hr Normoxia) (μM) (HRE-bla ME-180 cells [3]) |
| --- | --- | --- | --- | --- |
| 200 to 400 | > 30 | CC[C@H](C)[C@H](NC(=O)[C@H](Cc1ccccc1)NC(C)=O)C(=O)N[C@@H](CC(=O)O)C(=O)N[C@@H](Cc1ccc(C(=O)O)cc1)C(=O)N[C@@H](CCC(=O)O)C(=O)N[C@H](C(=O)N[C@@H](CC(C)C)C(=O)N[C@@H](CCSC)C(=O)N[C@@]1(C)CCCC=CCCC[C@@](C)(C(=O)N[C@@H](CCSC)C(=O)N[C@@H](C)C(=O)N[C@@H](Cc2ccccc2)C(N)=O)NC(=O)[C@H]([C@@H](C)CC)NC(=O)[C@H](C(C)C)NC(=O)[C@H](CC(C)C)NC1=O)C(C)C [SP-228] (Ac-FID[Phe(4-COOH)]EVLM[S5]LVI[S5]MAF-NH2; staple 9-13) | +++ (≤25 but <50: +++) | ++++ (≥30: ++++) |
| 400 to 700 | > 30 | CC[C@H](C)[C@H](NC(=O)[C@H](Cc1ccccc1)NC(C)=O)C(=O)N[C@@H](CO)C(=O)N[C@@H](CCC(=O)O)C(=O)N[C@@H](CCC(=O)O)C(=O)N[C@H](C(=O)N[C@@H](CC(C)C)C(=O)N[C@@H](CCSC)C(=O)N[C@@]1(C)CCCC=CCCC[C@@](C)(C(=O)N[C@@H](CCSC)C(=O)N[C@@H](C)C(=O)N[C@@H](CC(C)C)C(N)=O)NC(=O)[C@H]([C@@H](C)CC)NC(=O)[C@H](C(C)C)NC(=O)[C@H](CC(C)C)NC1=O)C(C)C [SP-230] (Ac-FISEEVLM[S5]LVI[S5]MAL-NH2; staple 9-13) | + (<10: +) | ++++ (≥30: ++++) |
| 400 to 700 | > 30 | CC[C@H](C)[C@H](NC(=O)[C@H](Cc1ccccc1)NC(C)=O)C(=O)N[C@@H](CC(=O)O)C(=O)N[C@@H](CCC(=O)O)C(=O)N[C@@H](CCC(N)=O)C(=O)N[C@H](C(=O)N[C@@H](CC(C)C)C(=O)N[C@@H](CCSC)C(=O)N[C@@]1(C)CCCC=CCCC[C@@](C)(C(=O)N[C@@H](CCSC)C(=O)N[C@@H](C)C(=O)N[C@@H](CC(C)C)C(N)=O)NC(=O)[C@H]([C@@H](C)CC)NC(=O)[C@H](C(C)C)NC(=O)[C@H](CC(C)C)NC1=O)C(C)C [SP-234] (Ac-FIDEQVLM[S5]LVI[S5]MAL-NH2; staple 9-13) | +++ (≤25 but <50: +++) | ++++ (≥30: ++++) |
| > 700 | 15 to 30 | CC[C@H](C)[C@H](NC(=O)[C@H](Cc1ccccc1)NC(C)=O)C(=O)N[C@@H](CC(=O)O)C(=O)N[C@@H](CCC(=O)O)C(=O)N[C@@H](CC(N)=O)C(=O)N[C@H](C(=O)N[C@@H](CC(C)C)C(=O)N[C@@H](CCSC)C(=O)N[C@@]1(C)CCCC=CCCC[C@@](C)(C(=O)N[C@@H](CCSC)C(=O)N[C@@H](C)C(=O)N[C@@H](CC(C)C)C(N)=O)NC(=O)[C@H]([C@@H](C)CC)NC(=O)[C@H](C(C)C)NC(=O)[C@H](CC(C)C)NC1=O)C(C)C [SP-235] (Ac-FIDENVLM[S5]LVI[S5]MAL-NH2; staple 9-13) | +++ (≤25 but <50: +++) | ++++ (≥30: ++++) |
| > 700 | > 30 | CC[C@H](C)[C@H](NC(=O)[C@H](Cc1ccccc1)NC(C)=O)C(=O)N[C@@H](CC(=O)O)C(=O)N[C@@H](CCC(=O)O)C(=O)N[C@@H](CCC(=O)O)C(=O)N[C@H](C(=O)N[C@@H](CC(C)C)C(=O)N[C@@H](CCSC)C(=O)N[C@@]1(C)CCCC=CCCC[C@@](C)(C(=O)N[C@@H](CCSC)C(=O)N[C@@H](C)C(=O)N[C@@H](CC(C)C)C(N)=O)NC(=O)[C@H]([C@@H](C)CC)NC(=O)[C@H](C(C)C)NC(=O)[C@H](Cc2ccccc2)NC1=O)C(C)C [SP-236] (Ac-FIDEEVLM[S5]FVI[S5]MAL-NH2; staple 9-13) | +++ (≤25 but <50: +++) | ++++ (≥30: ++++) |

Reference: US20190225650A1, “PEPTIDOMIMETIC MACROCYCLES AND USE THEREOF IN REGULATING HIF1ALPHA” (AILERON THERAPEUTICS, INC., priority 2013, published 2019)
